Laboratory results as given in patent publication US11000601B2, “Conjugated biological molecules, pharmaceutical compositions and methods” (OBI Pharma, Inc., priority 2016, dated 2021).
Where “and” joins values, the source holds several entries; their conditions need not be identical. Identical values can stand only once. Square brackets hold non-standard residues; d marks the D form. Peptide text beside a SMILES is read from it. * marks the point of attachment. Dolaproine = CO[C@@H]([C@@H]1CCCN1)[C@@H](C)C(=O)O; Dil = CC[C@H](C)[C@H](NC)[C@@H](CC(=O)O)OC; X1 = C[C@@H](N*)[C@@H](O)c1ccccc1; NMeV = CN[C@H](C(=O)O)C(C)C

Test system: HPAC tumor cells (ATCC CRL-2119) human pancreatic cancer
Assay: HPAC human pancreatic cancer xenograft model in male BALB/c nude mice: tumor volume, T/C, TGI
Assay type: in vivo
Details: for Tumor Volume (mm^3), Mean: group mean; for Tumor Volume (mm^3), Mean / Tumor Volume (mm^3): QW x 4, ADC (OBI-999) and OBI-888 10 mg/kg IV, MMAE 0.191 mg/kg IP; for Tumor Volume (mm^3): individual animals
Experimental: The HPAC tumor cells (ATCC CRL-2119) were maintained in vitro as a monolayer culture in 1:1 mixture of Dulbecco's modified Eagle's medium and Ham's F12 medium containing 1.2 g/L sodium bicarbonate, 2.5 mM L-glutamine, 15 mM HEPES and 0.5 mM sodium pyruvate supplemented with 0.002 mg/mL insulin, 0.005 mg/mL transferrin, 40 ng/mL hydrocortisone, 10 ng/mL epidermal growth factor and 5% fetal bovine serum, 100 U/mL penicillin and 100 μg/mL streptomycin at 37° C. in an atmosphere of 5% CO2 in air. The tumor cells were routinely subcultured twice weekly by trypsin-EDTA treatment. The cells growing in an exponential growth phase were harvested and counted for tumor inoculation.
The endpoint was to determine the anti-tumor effects of testing compounds. Tumor size was measured twice weekly in two dimensions using a caliper, and the volume was expressed in mm^3 using the formula: V=0.5 a×b^2 where a and b are the long and short diameters of the tumor, respectively. The tumor size was then used for calculation of T/C values. The T/C value (in percent) is an indication of antitumor effectiveness; T and C are the mean volumes of the treated and control groups, respectively, on a given day. TGI was calculated for each group using the formula: TGI (%)=[1−(Ti−T0)/(Vi−V0)]×100; Ti is the average tumor volume of a treatment group on a given day, T0 is the average tumor volume of the treatment group on day 0, Vi is the average tumor volume of the vehicle control group on the same day with Ti, and V0 is the average tumor volume of the vehicle group on day 0.
Summary statistics, including mean and the standard error of the mean (SEM), are provided for the tumor volume of each group at each time point. Statistical analysis of difference in the tumor volume among the groups were conducted on the data obtained at the best therapeutic time point after the final dose (the 37th day after grouping). A one-way ANOVA was performed to compare the tumor volume among groups, and when a significant F-statistics (a ratio of treatment variance to the error variance) was obtained, comparisons between groups were carried out with Games-Howell test, otherwise they were carried out with Dunnett (2 sided) test. […] All data were analyzed using SPSS 17.0. p<0.05 was considered to be statistically significant.

[1] = 0.191 mg/kg IP once weekly for four weeks, single agent, Day 37

CC[C@H](C)[C@@H]([C@@H](CC(=O)N1CCC[C@H]1[C@H](OC)[C@@H](C)C(=O)N[C@H](C)[C@@H](O)c1ccccc1)OC)N(C)C(=O)[C@@H](NC(=O)[C@@H](NC)C(C)C)C(C)C [MMAE, monomethyl auristatin E] (H-[NMeV]V[Dil][Dolaproine]-X1)
antitumor activity (in words) (0.191 mg/kg IP once weekly for four weeks, single agent): minor antitumor activity
T/C [1]: 75.8%
TGI [1]: 25.2%
mean tumor size [1]: 1,644 mm^3
Tumor Volume (mm^3), Mean (Day 0): 85 mm^3
Tumor Volume (mm^3) (Day 0): 58 mm^3 and 53 mm^3 and 132 mm^3 and 72 mm^3 and 86 mm^3 and 116 mm^3 and 71 mm^3 and 91 mm^3
Tumor Volume (mm^3), Mean (Day 3): 114 mm^3
Tumor Volume (mm^3) (Day 3): 128 mm^3 (2×) and 76 mm^3 and 148 mm^3 and 82 mm^3 and 158 mm^3 and 57 mm^3 and 137 mm^3
Tumor Volume (mm^3), Mean (Day 7): 134 mm^3
Tumor Volume (mm^3) (Day 7): 104 mm^3 and 114 mm^3 and 177 mm^3 and 144 mm^3 and 97 mm^3 and 167 mm^3
Tumor Volume (mm^3), Mean (Day 10): 245 mm^3
Tumor Volume (mm^3) (Day 10): 444 mm^3 and 196 mm^3 and 219 mm^3 and 160 mm^3 and 207 mm^3
Tumor Volume (mm^3), Mean (Day 14): 385 mm^3
Tumor Volume (mm^3) (Day 14): 429 mm^3 and 418 mm^3 (2×) and 268 mm^3 and 390 mm^3
Tumor Volume (mm^3), Mean (Day 17): 464 mm^3
Tumor Volume (mm^3) (Day 17): 590 mm^3 and 452 mm^3 and 510 mm^3 and 321 mm^3 and 448 mm^3
Tumor Volume (mm^3), Mean (Day 21): 551 mm^3
Tumor Volume (mm^3) (Day 21): 649 mm^3 and 692 mm^3 and 581 mm^3 and 383 mm^3 and 451 mm^3
Tumor Volume (mm^3), Mean (Day 24): 672 mm^3
Tumor Volume (mm^3) (Day 24): 748 mm^3 and 705 mm^3 and 822 mm^3 and 511 mm^3 and 571 mm^3
Tumor Volume (mm^3), Mean (Day 28): 858 mm^3
Tumor Volume (mm^3) (Day 28): 1080 mm^3 and 888 mm^3 and 913 mm^3 and 623 mm^3 and 785 mm^3
Tumor Volume (mm^3), Mean (Day 31): 1194 mm^3
Tumor Volume (mm^3) (Day 31): 1174 mm^3 and 1340 mm^3 and 1439 mm^3 and 1030 mm^3 and 989 mm^3
Tumor Volume (mm^3), Mean (Day 35): 1449 mm^3
Tumor Volume (mm^3) (Day 35): 1650 mm^3 and 1656 mm^3 and 1496 mm^3 and 1236 mm^3 and 1208 mm^3
Tumor Volume (mm^3), Mean (Day 37): 1644 mm^3
Tumor Volume (mm^3) (Day 37): 1652 mm^3 and 1963 mm^3 and 1828 mm^3 and 1196 mm^3 and 1580 mm^3
